Measured values published in ChEMBL document CHEMBL5260813, “An overview on the recent developments of 1,2,4-triazine derivatives as anticancer compounds” (Eur J Med Chem, 2017).

Key:
[1] = Ratio of IC50 for antiproliferative activity against human Eca-109 cells assessed as inhibition of cell growth under normoxia condition to IC50 for antiproliferative activity against human Eca-109 cells assessed as inhibition of cell growth under hypoxia condition; assay type: functional
[2] = Ratio of IC50 for antiproliferative activity against human PC-3 cells assessed as inhibition of cell growth under normoxia condition to IC50 for antiproliferative activity against human PC-3 cells assessed as inhibition of cell growth under hypoxia condition; assay type: functional
[3] = Ratio of IC50 for antiproliferative activity against human MCF7 cells assessed as inhibition of cell growth under normoxia condition to IC50 for antiproliferative activity against human MCF7 cells assessed as inhibition of cell growth under hypoxia condition; assay type: functional
[4] = Ratio of IC50 for antiproliferative activity against human Bel-7402 cells assessed as inhibition of cell growth under normoxia condition to IC50 for antiproliferative activity against human Bel-7402 cells assessed as inhibition of cell growth under hypoxia condition; assay type: functional
[5] = Ratio of IC50 for antiproliferative activity against human HL-60 cells assessed as inhibition of cell growth under normoxia condition to IC50 for antiproliferative activity against human HL-60 cells assessed as inhibition of cell growth under hypoxia condition; assay type: functional
KB = assay: Antiproliferative activity against human KB cells assessed as inhibition of cell growth under hypoxia condition; assay type: functional, cell-based
NCI-H460 = assay: Antiproliferative activity against human NCI-H460 cells assessed as inhibition of cell growth under hypoxic condition by MTT assay; assay type: functional, cell-based
MCF7 = assay: Antiproliferative activity against human MCF7 cells assessed as inhibition of cell growth under hypoxic condition by MTT assay; assay type: functional, cell-based
HCT-116 = assay: Antiproliferative activity against human HCT-116 cells assessed as inhibition of cell growth under hypoxic condition by MTT assay; assay type: functional, cell-based

| Structure (SMILES) | Ratio IC50 [1] | Ratio IC50 [2] | Ratio IC50 [3] | Ratio IC50 [4] | Ratio IC50 [5] | IC50 (NCI-H460) | IC50 (MCF7) | IC50 (HCT-116) | other results |
| --- | --- | --- | --- | --- | --- | --- | --- | --- | --- |
| O=[N+]([O-])c1ccc2c(c1)[n+]([O-])nc(NCc1ccccc1)[n+]2[O-] | 1.45 | 1.89 | 1.2 | 1.17 | 1.09 | – | – | – | – |
| O=[N+]([O-])c1cccc(COCNc2n[n+]([O-])c3ccccc3[n+]2[O-])c1 | – | – | – | – | – | – | – | – | IC50 (KB): 3.44 µM |
| CCCCCCNc1n[n+]([O-])c2ccccc2[n+]1[O-] | 1.7 | 1.19 | 1.3 | – | 2.8 | – | – | – | – |
| Cc1ccc2c(c1)[n+]([O-])nc(NCc1ccccc1)[n+]2[O-] | 8.77 | 2.4 | 3.79 | 2.54 | 1.21 | – | – | – | – |
| CCCOCNc1n[n+]([O-])c2ccccc2[n+]1[O-] | – | – | – | – | – | – | – | – | IC50 (KB): 3.74 µM |
| [O-][n+]1nc(Nc2ccccc2)[n+]([O-])c2ccccc21 | 4.1 | 2.3 | 2.1 | 2 | 2.5 | – | – | – | – |
| O=C(NCCCCCNc1n[n+]([O-])c2ccccc2[n+]1[O-])C(F)(F)F | – | – | – | – | – | 11.7 µM | 11.7 µM | 11.7 µM | – |
| O=[N+]([O-])c1ccc2c(c1)[n+]([O-])nc(NC1CCCCC1)[n+]2[O-] | 1.6 | 1.07 | – | 1.68 | – | – | – | – | – |
| NCCNc1n[n+]([O-])c2ccccc2[n+]1[O-] | – | – | – | – | – | 11.7 µM | 11.7 µM | 11.7 µM | – |
| CCNc1n[n+]([O-])c2cc(OC)ccc2[n+]1[O-] | 1.12 | 1.2 | – | 1.07 | – | – | – | – | – |
| Cc1ccc2c(c1)[n+]([O-])nc(Nc1ccccc1)[n+]2[O-] | 5.31 | 1.2 | 2.19 | 2.07 | 1.01 | – | – | – | – |
| CCNc1n[n+]([O-])c2ccccc2[n+]1[O-] | 5.4 | 4.4 | 2.1 | 2.2 | 1.6 | – | – | – | – |
| [O-][n+]1nc(NCOCc2ccccc2)[n+]([O-])c2ccccc21 | – | – | – | – | – | – | – | – | IC50 (KB): 4.14 µM |
| CCCCCOCNc1n[n+]([O-])c2cc(OC)ccc2[n+]1[O-] | – | – | – | – | – | – | – | – | IC50 (KB): 2.51 µM |
| O=C(NCCCCNc1n[n+]([O-])c2ccccc2[n+]1[O-])C(F)(F)F | – | – | – | – | – | 11.7 µM | 11.7 µM | 11.7 µM | – |
| NCCCCCCNc1n[n+]([O-])c2ccccc2[n+]1[O-] | – | – | – | – | – | 11.7 µM | 11.7 µM | 11.7 µM | – |
| CCCCCCNc1n[n+]([O-])c2cc(Cl)ccc2[n+]1[O-] | 2.6 | 1.4 | 2.1 | 1.6 | 4 | – | – | – | – |
| NCCCCCCCNc1n[n+]([O-])c2ccccc2[n+]1[O-] | – | – | – | – | – | 11.7 µM | 11.7 µM | 11.7 µM | – |
| CCCCCOCNc1n[n+]([O-])c2ccccc2[n+]1[O-] | – | – | – | – | – | – | – | – | IC50 (KB): 2.9 µM |
| [O-][n+]1nc(NCOCc2ccc(Cl)cc2)[n+]([O-])c2ccccc21 | – | – | – | – | – | – | – | – | IC50 (KB): 2.19 µM |
| [O-][n+]1nc(NCCNc2n[n+]([O-])c3ccccc3[n+]2[O-])nc2ccccc21 | – | – | – | – | – | 11.7 µM | 11.7 µM | 11.7 µM | – |
| O=C(NCCNc1n[n+]([O-])c2ccccc2[n+]1[O-])C(F)(F)F | – | – | – | – | – | 11.7 µM | 11.7 µM | 11.7 µM | – |
| COc1ccc2c(c1)[n+]([O-])nc(NCOCc1ccccc1)[n+]2[O-] | – | – | – | – | – | – | – | – | IC50 (KB): 4.47 µM |
| O=C(NCCCCCCNc1n[n+]([O-])c2ccccc2[n+]1[O-])C(F)(F)F | – | – | – | – | – | 11.7 µM | 11.7 µM | 11.7 µM | – |
| O=[N+]([O-])c1ccc2c(c1)[n+]([O-])nc(Nc1ccccc1)[n+]2[O-] | 1.47 | – | 1.61 | 1.44 | – | – | – | – | – |

| Structure (SMILES) | Ratio IC50 [1] | Ratio IC50 [2] | Ratio IC50 [3] | Ratio IC50 [4] | Ratio IC50 [5] | IC50 (NCI-H460) | IC50 (MCF7) | IC50 (HCT-116) | other results |
| --- | --- | --- | --- | --- | --- | --- | --- | --- | --- |
| CCCCCCNc1n[n+]([O-])c2cc([N+](=O)[O-])ccc2[n+]1[O-] | 1.5 | 1.6 | – | 1.5 | – | – | – | – | – |
| [O-][n+]1nc(NCOC2CCCCC2)[n+]([O-])c2ccccc21 | – | – | – | – | – | – | – | – | IC50 (KB): 1.2 µM |
| CC(C)CCOCNc1n[n+]([O-])c2ccccc2[n+]1[O-] | – | – | – | – | – | – | – | – | IC50 (KB): 2.11 µM |
| NCCCNc1n[n+]([O-])c2ccccc2[n+]1[O-] | – | – | – | – | – | 11.7 µM | 11.7 µM | 11.7 µM | – |
| O=C(NCCCCCCCCNc1n[n+]([O-])c2ccccc2[n+]1[O-])C(F)(F)F | – | – | – | – | – | 11.7 µM | 11.7 µM | 11.7 µM | – |
| CCNc1n[n+]([O-])c2cc(C)ccc2[n+]1[O-] | 1.4 | 2.1 | 2.7 | 1.74 | 1 | – | – | – | – |
| NCCCCNc1n[n+]([O-])c2ccccc2[n+]1[O-] | – | – | – | – | – | 11.7 µM | 11.7 µM | 11.7 µM | – |
| CC(OCNc1n[n+]([O-])c2ccccc2[n+]1[O-])c1ccccc1 (centres undefined) | – | – | – | – | – | – | – | – | IC50 (KB): 2.81 µM |
| CCCCOCNc1n[n+]([O-])c2ccccc2[n+]1[O-] | – | – | – | – | – | – | – | – | IC50 (KB): 2.32 µM |
| Cc1ccc2c(c1)[n+]([O-])nc(NC1CCCCC1)[n+]2[O-] | 2.5 | 1.2 | 2 | 1.1 | 7.9 | – | – | – | – |
| CCCOCNc1n[n+]([O-])c2cc(OC)ccc2[n+]1[O-] | – | – | – | – | – | – | – | – | IC50 (KB): 2.54 µM |
| CCCCCCNc1n[n+]([O-])c2cc(C)ccc2[n+]1[O-] | 4.7 | 1.3 | 1.3 | – | 2.9 | – | – | – | – |
| [O-][n+]1nc(NCc2ccccc2)[n+]([O-])c2ccccc21 | 5.1 | 2.3 | 1.9 | 2.8 | 4.2 | – | – | – | – |
| O=C(NCCCCCCCNc1n[n+]([O-])c2ccccc2[n+]1[O-])C(F)(F)F | – | – | – | – | – | 11.7 µM | 11.7 µM | 11.7 µM | – |
| [O-][n+]1nc(NCCCNc2n[n+]([O-])c3ccccc3[n+]2[O-])nc2ccccc21 | – | – | – | – | – | 11.7 µM | 11.7 µM | 11.7 µM | – |
| COc1ccc2c(c1)[n+]([O-])nc(NC1CCCCC1)[n+]2[O-] | 2 | – | 2.8 | 1.6 | 2.2 | – | – | – | – |
| COc1ccc2c(c1)[n+]([O-])nc(NCC1CCCCC1)[n+]2[O-] | 1.3 | 1 | 2.4 | 2 | 2.4 | – | – | – | – |
| CCNc1n[n+]([O-])c2cc(Cl)ccc2[n+]1[O-] | 2.7 | – | 3.84 | 2.4 | 5.1 | – | – | – | – |
| CCCCCCCOCNc1n[n+]([O-])c2ccccc2[n+]1[O-] | – | – | – | – | – | – | – | – | IC50 (KB): 3.49 µM |
| Nc1n[n+]([O-])c2ccccc2[n+]1[O-] [TIRAPAZAMINE] | 6.6 | 3.8 | 1.7 | 1.8 | 1.1 | – | – | – | – |
| NCCCCCCCCNc1n[n+]([O-])c2ccccc2[n+]1[O-] | – | – | – | – | – | 11.7 µM | 11.7 µM | 11.7 µM | – |
| [O-][n+]1nc(NC2CCCCC2)[n+]([O-])c2ccccc21 | 2.8 | 1.5 | 1.9 | 1.1 | 4.1 | – | – | – | – |
| O=C(NCCCNc1n[n+]([O-])c2ccccc2[n+]1[O-])C(F)(F)F | – | – | – | – | – | 11.7 µM | 11.7 µM | 11.7 µM | – |
| NCCCCCNc1n[n+]([O-])c2ccccc2[n+]1[O-] | – | – | – | – | – | 11.7 µM | 11.7 µM | 11.7 µM | – |
